From US9040579B2, “Combination therapy using coenzyme Q10 and a caffeic acid-derived ester” (priority 2010, dated 2015)

Tested on: Mice that over-expressed human Cu,Zn superoxide dismutase-1 mutant G93A
Assay: Survival of ALS model mice treated by oral gavage
Format: in vivo
Settings: G93A SOD1 mice; single-agent control treatment; untreated mice 125 days
Experimental: Compound 1 was dissolved in a PEG solvent (30% PEG 400, 5% EtOH, 5% DMSO, 1 mg/ml). The solution was mixed with Coenzyme Q10 in liposome (5 mg/ml, NuNaturals).
Mice that over-expressed human Cu,Zn superoxide dismutase-1 mutant G93A to develop a delayed and progressive motor neuron disease similar to human amyotrophic lateral sclerosis (ALS) were used in this assay.
The mixture of Compound 1 and Coenzyme Q10 were administered by gavage (oral) once a day (final dosage: 10 mg/kg of Compound 1 and 50 mg/kg of Coenzyme Q10) to 5 mice. The average survival time for the mice was 156 days.
As control, mice were subject to Compound 1 treatment, Coenzyme Q10 treatment, or no Compound 1 or Coenzyme Q10 treatment. The average survival time was 138 days for Compound 1-treated mice, 129 days for Coenzyme Q10 treatment mice, and 125 days for no Compound 1 or Coenzyme Q10-treated mice.

| SMILES | average survival time |
| --- | --- |
| O=C(/C=C/c1ccc(O)c(O)c1)OCCc1ccccc1 [Compound 1, caffeic acid phenethyl ester] | 138 days |
| COC1=C(OC)C(=O)C(C/C=C(\C)CC/C=C(\C)CC/C=C(\C)CC/C=C(\C)CC/C=C(\C)CC/C=C(\C)CC/C=C(\C)CC/C=C(\C)CC/C=C(\C)CCC=C(C)C)=C(C)C1=O [Coenzyme Q10] | 129 days |
